Columns and labels:
Type in all cases: cell-based
[1] = tested on: GFP-tagged gelsolin in hippocampal neurons; assay: Gelsolin accumulation in dendritic spines, receptor subtype specificity
Procedure: Imaging was performed at 37° C. in Tyrode's solution pH 7.3, with GFP-optimized filters (Chroma Technologies, Brattleboro, Vt.) and a MicroMax cooled CCD camera (Princeton Instruments, Trenton, N.J.) controlled by Metamorph software (Universal Imaging corporation, West Chester, Pa.). Cells were stimulated by addition of glutamate or NMDA (5 to 10 μM) for up to 30 minutes. In experiments where specific receptor subtypes were blocked, cells were preincubated for 15 minutes with corresponding antagonists.
In these experiments only 2.5 μM glutamate was used.

[2] = tested on: hippocampal neurons expressing unmodified GFP; assay: Distribution of unmodified GFP in dendrites after glutamate (control construct); settings: 10 μM glutamate
Procedure: (§1) To test this hypothesis we exposed hippocampal neurons expressing GFP-tagged profilin II or profilin I or unmodified GFP to 10 μM glutamate (FIG. 2). […] Glutamate treatment also produced a weaker shift of GFP tagged profilin I into spines (FIG. 2D) which, however, never approached the high levels seen for profilin II.

[3] = tested on: hippocampal neurons expressing GFP-tagged profilin I; assay: Profilin I-GFP redistribution to spines after glutamate; settings: 10 μM glutamate; compared with profilin II
Procedure: as §1

[4] = tested on: cultured hippocampal neurons; settings: glutamate 100 microM for 30 min
From the text: This is relevant to stroke and epilepsy where hyperstimulation of receptors by released glutamate causes neuronal damage. Thus it appears that profilin II tagging occurs even after events that ultimately lead to apoptosis have been set in motion. In toxicity models, profilin II targeting could thus act as a marker for potentially damaged cells at times before cell death occurs.

[5] = treated with glutamate (2.5 μM) while blocking specific receptor subtypes
[6] = treated with agonists for specific receptor subtypes

CC(N)(C(=O)O)c1ccc(C(=O)O)cc1 (racemic) [MCPG, (R, S)-[…]-methyl-4-carboxyphenylglycine]
Accumulation (+) of gelsolin, number of cells [1, 5]: 3
No change (−) of gelsolin, number of cells [1, 5]: 8

Cc1onc(O)c1CC(N)C(=O)O (centres unmarked) [AMPA, amino-3-hydroxy-5-methyl-4-isoxazolepropionic acid]
Accumulation (+) of gelsolin, number of cells [1, 6]: 0
No change (−) of gelsolin, number of cells [1, 6]: 10

N[C@H](CCCP(=O)(O)O)C(=O)O [APV, D(−)-2-amino-5-phosphonopentanoic acid]
Accumulation (+) of gelsolin, number of cells [1, 5]: 1
No change (−) of gelsolin, number of cells [1, 5]: 14

N[C@H](C(=O)O)c1cc(O)cc(O)c1 [DHPG, (S)-3,5-dihydroxyphenylglycine]
Accumulation (+) of gelsolin, number of cells [1, 6]: 4
No change (−) of gelsolin, number of cells [1, 6]: 7

NS(=O)(=O)c1cccc2c1c([N+](=O)[O-])cc1[nH]c(=O)c(=O)[nH]c12 [NBQX, 1,2,3,4-Tetrahydro-6-nitro-2,3-dioxo-benzo[f]quinoxaline-7-sulfonamide]
Accumulation (+) of gelsolin, number of cells [1, 5]: 7
No change (−) of gelsolin, number of cells [1, 5]: 6

CN[C@H](CC(=O)O)C(=O)O [NMDA, N-methyl-D-aspartate]
Accumulation (+) of gelsolin, number of cells [1, 6]: 11
No change (−) of gelsolin, number of cells [1, 6]: 16

N[C@@H](CCC(=O)O)C(=O)O [glutamate]
Distribution of unmodified GFP (in words) [2]: did not change the distribution
Number of cells in category − ([2]; GFP construct): 7
Shift of GFP tagged profilin I into spines (in words) [3]: weaker shift
Profilin II-GFP targeting despite degenerative changes (in words) [4]: still targeted to punctate sites within dendrites
Time to excitotoxic changes (loss of normal morphology, swelling of dendrites) [4]: ≤ 2 min

Reference: patent publication US20050048462A1, “Markers and screens” (priority 2001, published 2005)
